Results as given in patent US10070651B2, “Synthesis and characterization of antimicrobial non-color forming silver-silica nanocomposite” (UNIVERSITY OF CENTRAL FLORIDA RESEARCH FOUNDATION, INC., priority 2015, dated 2018).

Tests used:
[1] = Color passivation study on coated tiles (thermal and UV treatments); type: physicochemical
Experimental: White tiles were purchased from Home Depot, and scrubbed with acetone and Kim wipes to remove any oils which would inhibit materials from adhering well. After scrubbing and allowing the tiles to dry, about 50 μL samples of each material were spread over an area approximately 3cm by 3cm, and allowed to dry under ambient conditions. A picture was taken, and then tiles were exposed to long and shortwave UV radiation for 5 minutes, and briefly heated using a butane torch, and photographed again to observe the change in color of each material.

[2] = tested on: bacteria; assay: Antimicrobial efficacy / bacterial viability assay, summary statements without named organism; type: cell-based; conditions: equivalent concentrations of silver
Experimental: Such an enhanced antimicrobial efficacy, for instance, may be attributed to a sustained release of silver, for example, either as a nanoparticle and/or its ionic form. By way of example, antimicrobial efficacy of the silica-silver nanocomposite particle was evaluated relative to that of the silver nanoparticle (AgNP) lacking the dielectric material encapsulation and aqueous silver nitrate (AgNO3) solutions, respectively, at equivalent concentrations of silver (if present). Note that, the silver nanoparticle and the silver nitrate, in this example, have been used as a positive growth control, while the silica nanoparticle (SiNP) lacking silver components, has been used as a negative growth control.
In order to gain a better understanding of the antimicrobial efficacy of each material, we carried out a colony forming unit study over two time points, 1 and 4 hours. 96 well plates were prepared and incubated as described for M IC studies, and 10 μL samples from wells containing the concentrations of antimicrobial agents were taken at each time point. […] MH2 agar plates labeled by material and time point were then spotted with five 10 μL drops from each well at each concentration, allowed to dry in the sterile conditions of a biosafety cabinet, and then incubated 12-14 hours before colonies were counted. […]

O=[N+]([O-])[O-].[Ag+] [AgNO3, silver nitrate]
color of coated tile after thermal and UV treatments ([1]; UV radiation for 5 minutes and brief heating with butane torch): dark brown/black color | color of coated tile before thermal and UV treatments ([1]; white tiles, dried coating): do not show formation of color | antimicrobial efficacy, relative ranking [2]: most effective antimicrobial form of silver
